From patent publication US7595405B2, “Tetrazole-substituted arylamides as P2X3 and P2X2/3 antagonists” (Roche Palo Alto LLC, priority 2006, dated 2009)
pIC50: −log10 of the molar value.

Assays:
rat P2X3 receptor = target: T1, rat P2X3 receptor (Rattus norvegicus, UniProt P49654); assay: P2X3 FLIPR (Fluorometric Imaging Plate Reader) assay; format: cell-based; details: CHO-K1 cells transfected with rat P2X3, agonist α,β-meATP 1 μM
T1 construct: expressed in transfected cells; host or cells: CHO-K1
T1 sequence (P49654 1-397): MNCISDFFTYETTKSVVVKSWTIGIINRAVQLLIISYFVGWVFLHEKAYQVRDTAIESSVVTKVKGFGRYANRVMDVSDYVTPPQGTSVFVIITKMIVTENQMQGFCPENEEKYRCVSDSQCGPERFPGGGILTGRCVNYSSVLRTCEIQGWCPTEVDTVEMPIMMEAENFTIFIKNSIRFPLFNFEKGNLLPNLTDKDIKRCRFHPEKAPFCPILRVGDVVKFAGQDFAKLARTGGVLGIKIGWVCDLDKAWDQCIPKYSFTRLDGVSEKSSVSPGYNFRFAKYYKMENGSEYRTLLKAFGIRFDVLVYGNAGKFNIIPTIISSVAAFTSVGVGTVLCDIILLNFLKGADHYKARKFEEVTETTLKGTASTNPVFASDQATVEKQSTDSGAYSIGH
Method: P2X3/P2X2/3 FLIPR (Fluorometric Imaging Plate Reader) Assay
CHO-K1 cells were transfected with cloned rat P2X3 or human P2X2/3 receptor subunits and passaged in flasks. 18-24 hours before the FLIPR experiment, cells were released from their flasks, centrifuged, and resuspended in nutrient medium at 2.5×10^5 cells/ml. The cells were aliquoted into black-walled 96-well plates at a density of 50,000 cells/well and incubated overnight in 5% CO2 at 37° C. On the day of the experiment, cells were washed in FLIPR buffer (calcium- and magnesium-free Hank's balanced salt solution, 10 mM HEPES, 2 mM CaCl2, 2.5 mM probenecid; FB). […]
Test compounds (dissolved in DMSO at 10 mM and serially diluted with FB) or vehicle were added to each well (25 μl of a 4× solution) and allowed to equilibrate for 20 minutes at room temperature. The plates were then placed in the FLIPR and a baseline fluorescence measurement (excitation at 488 nm and emission at 510-570 nm) was obtained for 10 seconds before a 100 μl/well agonist or vehicle addition. […] Fluorescence was measured for an additional 2 minutes at 1 second intervals after agonist addition. A final addition of ionomycin (5 μM, final concentration) was made to each well of the FLIPR test plate to establish cell viability and maximum fluorescence of dye-bound cytosolic calcium. […]

melting point [°C]	pIC50 (rat P2X3 receptor)	SMILES
52 to 55		CCCc1nnnn1-c1cc(C(=O)NCc2cnc(C)cn2)cc(-c2ccc(Cl)cc2F)c1 [Example 741, 4′-Chloro-2′-fluoro-5-(5-propyl-tetrazol-1-yl)-biphenyl-3-carboxylic acid (5-methyl-pyrazin-2-ylmethyl)-amide]
58 to 60.3		CCCc1nnnn1-c1cc(C(=O)N[C@@H](C)CO)cc(-c2ccc(Cl)cc2F)c1 [Example 742, 4′-Chloro-2′-fluoro-5-(5-propyl-tetrazol-1-yl)-biphenyl-3-carboxylic acid ((S)-2-hydroxy-1-methyl-ethyl)-amide]
	~8.80	Cc1ccc(-c2cc(C(=O)N[C@@H](C)CO)cc(-n3nnnc3CC(C)C)c2)cc1 [5-(5-isobutyl-tetrazol-1-yl)-4′-methyl-biphenyl-3-carboxylic acid ((S)-2-hydroxy-1-methyl-ethyl)-amide]
